Measurements: ChEMBL document CHEMBL3994622, “Design and synthesis of new RAF kinase-inhibiting antiproliferative quinoline derivatives. Part 2: Diarylurea derivatives” (Eur J Med Chem, 2017)

Key:
K562 = test: Growth inhibition of human K562 cells incubated for 48 hrs by sulforhodamine B assay; type: functional; conditions: K562, 48 h
MOLT-4 = test: Growth inhibition of human MOLT4 cells incubated for 48 hrs by sulforhodamine B assay; type: functional; conditions: MOLT-4, 48 h
EKVX = test: Growth inhibition of human EKVX cells incubated for 48 hrs by sulforhodamine B assay; type: functional
NCI-H226 = test: Growth inhibition of human NCI-H226 cells incubated for 48 hrs by sulforhodamine B assay; type: functional; conditions: NCI-H226, 48 h
NCI-H23 = test: Growth inhibition of human NCI-H23 cells incubated for 48 hrs by sulforhodamine B assay; type: functional; conditions: NCI-H23, 48 h
NCI-H322M = test: Growth inhibition of human NCI-H322M cells incubated for 48 hrs by sulforhodamine B assay; type: functional
NCI-H460 = test: Growth inhibition of human NCI-H460 cells incubated for 48 hrs by sulforhodamine B assay; type: functional; conditions: NCI-H460, 48 h
NCI-H522 = test: Growth inhibition of human NCI-H522 cells incubated for 48 hrs by sulforhodamine B assay; type: functional; conditions: NCI-H522, 48 h
HCC 2998 = test: Growth inhibition of human HCC2998 cells incubated for 48 hrs by sulforhodamine B assay; type: functional; conditions: HCC 2998, 48 h
HCT-15 = test: Growth inhibition of human HCT15 cells incubated for 48 hrs by sulforhodamine B assay; type: functional; conditions: HCT-15, 48 h
HT-29 = test: Growth inhibition of human HT-29 cells incubated for 48 hrs by sulforhodamine B assay; type: functional; conditions: HT-29, 48 h
KM12 = test: Growth inhibition of human KM12 cells incubated for 48 hrs by sulforhodamine B assay; type: functional; conditions: KM12, 48 h
SW-620 = test: Growth inhibition of human SW620 cells incubated for 48 hrs by sulforhodamine B assay; type: functional; conditions: SW-620, 48 h
SF-539 = test: Growth inhibition of human SF539 cells incubated for 48 hrs by sulforhodamine B assay; type: functional; conditions: SF-539, 48 h
SNB-75 = test: Growth inhibition of human SNB75 cells incubated for 48 hrs by sulforhodamine B assay; type: functional; conditions: SNB-75, 48 h
LOX IMVI = test: Growth inhibition of human LOXIMVI cells incubated for 48 hrs by sulforhodamine B assay; type: functional
MDA-MB-435 = test: Growth inhibition of human MDA-MB-435 cells incubated for 48 hrs by sulforhodamine B assay; type: functional; conditions: MDA-MB-435, 48 h
SK-MEL-2 = test: Growth inhibition of human SK-MEL-2 cells incubated for 48 hrs by sulforhodamine B assay; type: functional; conditions: SK-MEL-2, 48 h
UACC-62 = test: Growth inhibition of human UACC62 cells incubated for 48 hrs by sulforhodamine B assay; type: functional; conditions: UACC-62, 48 h
IGROV-1 = test: Growth inhibition of human IGROV1 cells incubated for 48 hrs by sulforhodamine B assay; type: functional; conditions: IGROV-1, 48 h
OVCAR-4 = test: Growth inhibition of human OVCAR4 cells incubated for 48 hrs by sulforhodamine B assay; type: functional; conditions: OVCAR-4, 48 h
OVCAR-8 = test: Growth inhibition of human OVCAR8 cells incubated for 48 hrs by sulforhodamine B assay; type: functional; conditions: OVCAR-8, 48 h
786-0 = test: Growth inhibition of human 786-0 cells incubated for 48 hrs by sulforhodamine B assay; type: functional; conditions: 786-0, 48 h
A498 = test: Growth inhibition of human A498 cells incubated for 48 hrs by sulforhodamine B assay; type: functional; conditions: A498, 48 h
ACHN = test: Growth inhibition of human ACHN cells incubated for 48 hrs by sulforhodamine B assay; type: functional
RXF 393 = test: Growth inhibition of human RXF393 cells incubated for 48 hrs by sulforhodamine B assay; type: functional; conditions: RXF 393, 48 h
SN12C = test: Growth inhibition of human SN12C cells incubated for 48 hrs by sulforhodamine B assay; type: functional
TK-10 = test: Growth inhibition of human TK10 cells incubated for 48 hrs by sulforhodamine B assay; type: functional; conditions: TK-10, 48 h
UO-31 = test: Growth inhibition of human UO31 cells incubated for 48 hrs by sulforhodamine B assay; type: functional; conditions: UO-31, 48 h
PC-3 = test: Growth inhibition of human PC3 cells incubated for 48 hrs by sulforhodamine B assay; type: functional; conditions: PC-3, 48 h
BT-549 = test: Growth inhibition of human BT549 cells incubated for 48 hrs by sulforhodamine B assay; type: functional; conditions: BT-549, 48 h
[1] = target: RAF proto-oncogene serine/threonine-protein kinase (Homo sapiens, UniProt P04049); test: Inhibition of human c-RAF at 10 uM using MEK1 as substrate in presence of [33P]ATP by Hotspot assay relative to control
Chain of RAF proto-oncogene serine/threonine-protein kinase (P04049 whole entry): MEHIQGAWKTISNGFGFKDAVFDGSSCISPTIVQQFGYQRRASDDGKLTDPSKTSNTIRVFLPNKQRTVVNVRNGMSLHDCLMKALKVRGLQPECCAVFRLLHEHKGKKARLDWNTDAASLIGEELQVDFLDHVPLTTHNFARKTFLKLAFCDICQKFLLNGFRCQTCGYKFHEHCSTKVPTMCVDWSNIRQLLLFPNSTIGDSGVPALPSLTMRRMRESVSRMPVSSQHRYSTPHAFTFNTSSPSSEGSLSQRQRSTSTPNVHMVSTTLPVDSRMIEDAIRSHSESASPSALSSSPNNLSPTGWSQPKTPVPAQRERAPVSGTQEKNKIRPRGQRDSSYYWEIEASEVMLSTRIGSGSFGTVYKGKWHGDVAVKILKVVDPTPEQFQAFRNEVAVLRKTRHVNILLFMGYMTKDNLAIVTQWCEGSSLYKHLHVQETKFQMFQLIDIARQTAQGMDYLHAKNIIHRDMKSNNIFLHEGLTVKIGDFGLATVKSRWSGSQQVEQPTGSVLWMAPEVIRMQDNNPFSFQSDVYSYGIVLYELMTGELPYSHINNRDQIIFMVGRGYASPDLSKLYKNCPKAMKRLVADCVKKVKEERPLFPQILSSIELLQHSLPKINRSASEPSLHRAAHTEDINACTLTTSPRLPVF

[2] = read-out: LC50 (the source's name)

SMILES: COc1cc2cc(Oc3ccc(NC(=O)Nc4cc(C(F)(F)F)cc(C(F)(F)F)c4)cc3)c(C)nc2cc1OC
- GI50 (K562): 570 nM
- LC50 (concentration killing 50% of cells) (K562): 17 µM
- TGI (K562): 2530 nM
- GI50 (MOLT-4): 1130 nM
- LC50 (MOLT-4): > 100 µM
- TGI (MOLT-4): 4.04 µM
- GI50 (EKVX): 1000 nM
- LC50 (concentration killing 50% of cells) (EKVX): 8.88 µM
- TGI (EKVX): 2980 nM
- GI50 (NCI-H226): 1800 nM
- TGI (NCI-H226): 3.91 µM
- CC50 (NCI-H226; [2]): 8.53 µM
- GI50 (NCI-H23): 639 to 640 nM
- TGI (NCI-H23): 3.55 µM
- CC50 (NCI-H23; [2]): 32.3 µM
- GI50 (NCI-H322M): 1160 nM
- TGI (NCI-H322M): 2570 nM
- CC50 (NCI-H322M; [2]): 5.7 µM
- GI50 (NCI-H460): 960 nM
- TGI (NCI-H460): 2720 nM
- CC50 (NCI-H460; [2]): 7.53 µM
- GI50 (NCI-H522): 1250 nM
- TGI (NCI-H522): 2950 nM
- CC50 (NCI-H522; [2]): 6.95 µM
- GI50 (HCC 2998): 1530 nM
- TGI (HCC 2998): 3.15 µM
- CC50 (HCC 2998; [2]): 6.49 µM
- GI50 (HCT-15): 668 to 670 nM
- LC50 (lethal concentration, 50% net cell kill) (HCT-15): 4.91 µM
- TGI (HCT-15): 2040 nM
- GI50 (HT-29): 1520 nM
- TGI (HT-29): 3.46 µM
- CC50 (HT-29; [2]): 7.91 µM
- GI50 (KM12): 918 to 920 nM
- TGI (KM12): 2460 nM
- CC50 (KM12; [2]): 6.27 µM
- GI50 (SW-620): 1940 nM
- LC50 (SW-620): 39.3 µM
- TGI (SW-620): 5.71 µM
- GI50 (SF-539): 1450 nM
- TGI (SF-539): 3.21 µM
- CC50 (SF-539; [2]): 7.11 µM
- GI50 (SNB-75): 1730 nM
- TGI (SNB-75): 5.05 µM
- CC50 (SNB-75; [2]): > 100 µM
- GI50 (LOX IMVI): 1440 nM
- TGI (LOX IMVI): 2960 nM
- CC50 (LOX IMVI; [2]): 6.12 µM
- GI50 (MDA-MB-435): 1800 nM
- TGI (MDA-MB-435): 4.28 µM
- CC50 (MDA-MB-435; [2]): 11.6 µM
- GI50 (SK-MEL-2): 1820 nM
- TGI (SK-MEL-2): 4.24 µM
- CC50 (SK-MEL-2; [2]): 9.88 µM
- GI50 (UACC-62): 560 nM
- TGI (UACC-62): 2090 nM
- CC50 (UACC-62; [2]): 6.03 µM
- GI50 (IGROV-1): 510 nM
- TGI (IGROV-1): 2300 nM
- CC50 (IGROV-1; [2]): 8.68 µM
- GI50 (OVCAR-4): 1220 nM
- TGI (OVCAR-4): 4.44 µM
- CC50 (OVCAR-4; [2]): 80.2 µM
- GI50 (OVCAR-8): 1630 nM
- TGI (OVCAR-8): 4.22 µM
- CC50 (OVCAR-8; [2]): > 100 µM
- GI50 (786-0): 1610 nM
- TGI (786-0): 3.09 µM
- CC50 (786-0; [2]): 13.8 µM
- GI50 (A498): 1600 nM
- TGI (A498): 4.29 µM
- CC50 (A498; [2]): 7.98 µM
- GI50 (ACHN): 390 nM
- TGI (ACHN): 1690 nM
- CC50 (ACHN; [2]): 51.6 µM
- GI50 (RXF 393): 2060 nM
- TGI (RXF 393): 4.78 µM
- CC50 (RXF 393; [2]): 5.94 µM
- GI50 (SN12C): 590 nM
- TGI (SN12C): 2090 nM
- CC50 (SN12C; [2]): 32.5 µM
- GI50 (TK-10): 2320 nM
- TGI (TK-10): 9.18 µM
- CC50 (TK-10; [2]): 5.99 µM
- GI50 (UO-31): 266 to 270 nM
- TGI (UO-31): 1650 nM
- CC50 (UO-31; [2]): 35.1 µM
- GI50 (PC-3): 420 nM
- TGI (PC-3): 2480 nM
- CC50 (PC-3; [2]): 32.4 µM
- GI50 (BT-549): 1750 nM
- TGI (BT-549): 3.76 µM
- CC50 (BT-549; [2]): 30.1 µM
- inhibition [1]: 92.4%
